US8106205B2, “N[S(4-aryl-triazol-3-yl)α-mercaptoacetyl]p-amino benzoic acids as HIV reverse transcriptase inhibitors” (priority 2004, dated 2012)
Read-outs that look alike come from different tables or passages of the source.

What was measured:
[1] = system: wild-type (WT) HIV; test: EC50 against wild-type HIV; format: cell-based
[2] = biological target: wild type HIV RT (Human immunodeficiency virus type 1 group M subtype B, UniProt P04585); test: IC50 against wild-type HIV reverse transcriptase; format: biochemical
Procedure: Compounds of the invention were tested against the wild-type and four mutant HIV reverse transcriptases. The results are listed in Table 1 and Table 2 as EC50 (nM) and IC50 (nM). In Tables 1 and 2, A represents <50 nM, B is between 50 and 100 nM, and C is >100 nM. ND is not determined. […]

[3] = Human immunodeficiency virus 1, read-out: EC50 WT
[4] = Table 2, wild-type, read-out: EC50 WT
[5] = Human immunodeficiency virus 1, read-out: EC50 WT (nM)

Structure (SMILES): CCCC(=O)NS(=O)(=O)c1ccc(NC(=O)CSc2nnc(Br)n2-c2ccc(C3CC3)c3ccccc23)c(Cl)c1 [Compound 58]
- EC50 [1, 3]: < 50 nM
- IC50 ([2]; Table 2, wild-type RT): < 50 nM

Structure (SMILES): NS(=O)(=O)c1ccc(NC(=O)CSc2nnc(Br)n2-c2ccc(C3CCC3)c3ccccc23)c(Cl)c1 [Compound 73]
- EC50 [1, 4]: < 50 nM
- IC50 ([2]; Table 2, wild-type RT): < 50 nM

Structure (SMILES): NS(=O)(=O)c1ccc(NC(=O)CSc2nnc(Br)n2-c2c(Cl)cc(C3CCC3)c3ccccc23)c(Cl)c1 (single isomer, unassigned) [Compound 69]
- EC50 [1, 4]: < 50 nM
- IC50 ([2]; Table 2, wild-type RT): < 50 nM

Structure (SMILES): Cc1cc(S(N)(=O)=O)ccc1NC(=O)CSc1nnc(Br)n1-c1ccc(C)c2c1CCCC2 [Compound 51]
- EC50 [1, 4]: < 50 nM
- IC50 ([2]; Table 2, wild-type RT): < 50 nM

Structure (SMILES): CCCc1ccc(-n2c(Br)nnc2SCC(=O)Nc2ccc(S(N)(=O)=O)cc2C)c2ccccc12 [Compound 56]
- EC50 [1, 4]: < 50 nM
- IC50 ([2]; Table 2, wild-type RT): < 50 nM

Structure (SMILES): NCCC[C@@H](N)C(=O)NS(=O)(=O)c1ccc(NC(=O)CSc2nnc(Br)n2-c2ccc(C3CC3)c3ccccc23)c(Cl)c1 [Compound 60]
- EC50 [1, 4]: < 50 nM
- IC50 ([2]; Table 2, wild-type RT): < 50 nM

Structure (SMILES): NCCC(N)C(=O)NS(=O)(=O)c1ccc(NC(=O)CSc2nnc(Br)n2-c2ccc(C3CC3)c3ccccc23)c(Cl)c1 (centres unmarked) [Compound 62]
- EC50 [1, 4]: < 50 nM
- IC50 ([2]; Table 2, wild-type RT): < 50 nM

Structure (SMILES): CCc1ccc(-n2c(Br)nnc2SCC(=O)Nc2ccc(S(N)(=O)=O)cc2Cl)c2ccccc12 [Compound 57]
- EC50 [1, 4]: < 50 nM
- IC50 ([2]; Table 2, wild-type RT): < 50 nM

Structure (SMILES): CC(=O)OC(C)OC(=O)NS(=O)(=O)c1ccc(NC(=O)CSc2nnc(Br)n2-c2ccc(C3CC3)c3ccccc23)c(Cl)c1 (centres unmarked) [Compound 47]
- EC50 [1, 4]: < 50 nM
- IC50 ([2]; Table 2, wild-type RT): < 50 nM

Structure (SMILES): Cc1ccc2c(C)ccc(-n3c(Br)nnc3SCC(=O)Nc3ccc(S(N)(=O)=O)cc3Br)c2c1 [Compound 52]
- EC50 [1, 4]: < 50 nM
- IC50 ([2]; Table 2, wild-type RT): < 50 nM

Structure (SMILES): Cc1cc(C2CC2)cc(Cl)c1-n1c(Br)nnc1SCC(=O)Nc1ccc(S(N)(=O)=O)cc1Cl [Compound 70]
- EC50 [1, 3]: < 50 nM
- IC50 ([2]; Table 2, wild-type RT): < 50 nM

Structure (SMILES): COCCC(=O)NS(=O)(=O)c1ccc(NC(=O)CSc2nnc(Br)n2-c2ccc(C3CC3)c3ccccc23)c(Cl)c1 [Compound 67]
- EC50 [1, 3]: < 50 nM
- IC50 ([2]; Table 2, wild-type RT): < 50 nM

Structure (SMILES): N[C@@H](CC(=O)NS(=O)(=O)c1ccc(NC(=O)CSc2nnc(Br)n2-c2ccc(C3CC3)c3ccccc23)c(Cl)c1)C(=O)O [Compound 63]
- EC50 [1, 4]: < 50 nM
- IC50 ([2]; Table 2, wild-type RT): < 50 nM

Structure (SMILES): CCCCC(=O)NS(=O)(=O)c1ccc(NC(=O)CSc2nnc(Br)n2-c2ccc(C3CC3)c3ccccc23)c(Cl)c1 [Compound 74]
- EC50 [1, 4]: < 50 nM
- IC50 ([2]; Table 2, wild-type RT): < 50 nM

Structure (SMILES): N#Cc1cccc2c(-n3c(SCC(=O)Nc4ccc(S(N)(=O)=O)cc4Cl)nnc3C(F)F)cccc12 [Compound 76]
- EC50 [1, 3]: < 50 nM
- IC50 ([2]; Table 2, wild-type RT): 50 to 100 nM

Structure (SMILES): NS(=O)(=O)c1ccc(NC(=O)CSc2nnc(Br)n2-c2ccc(C3CC3)c3ccccc23)c(Cl)c1 [Compound 45]
- EC50 [1, 4]: < 50 nM
- IC50 ([2]; Table 2, wild-type RT): < 50 nM

Structure (SMILES): NS(=O)(=O)c1ccc(NC(=O)CSc2nnc(Br)n2-c2c(Cl)cc(C3CCC3)c3ccccc23)c(Cl)c1 (single isomer, unassigned) [Compound 68]
- EC50 [1, 4]: < 50 nM
- IC50 ([2]; Table 2, wild-type RT): < 50 nM

Structure (SMILES): O=C(O)CCC(=O)NS(=O)(=O)c1ccc(NC(=O)CSc2nnc(Br)n2-c2ccc(C3CC3)c3ccccc23)c(Cl)c1 [Compound 71]
- EC50 [1, 4]: 50 to 100 nM
- IC50 ([2]; Table 2, wild-type RT): < 50 nM

Structure (SMILES): Cc1cc(S(N)(=O)=O)ccc1NC(=O)CSc1nnc(Br)n1-c1ccc(C2CCC2)c2ccccc12 [Compound 72]
- EC50 [1, 3]: < 50 nM
- IC50 ([2]; Table 2, wild-type RT): < 50 nM

Structure (SMILES): NS(=O)(=O)c1ccc(NC(=O)CSc2nnc(Br)n2-c2ccc(C3CC3)cc2OC(F)(F)F)c(Cl)c1 [Compound 66]
- EC50 [1, 3]: < 50 nM
- IC50 ([2]; Table 2, wild-type RT): < 50 nM

Structure (SMILES): CC(Sc1nnc(Br)n1-c1ccc(C2CC2)c2ccccc12)C(=O)Nc1ccc(S(N)(=O)=O)cc1Cl (centres unmarked) [Compound 44]
- EC50 [1, 3]: < 50 nM
- IC50 ([2]; Table 2, wild-type RT): < 50 nM

Structure (SMILES): Cc1cc(S(N)(=O)=O)ccc1NC(=O)CSc1nnc(C(F)F)n1-c1cccc2c(C#N)cccc12 [Compound 77]
- IC50 ([2]; Table 2, wild-type RT): > 100 nM

Structure (SMILES): Cc1cc(C)c(-n2c(SCC(=O)Nc3ccc(S(N)(=O)=O)cc3Cl)nnc2C(F)(F)F)c2c1CCCC2 [Compound 54]
- EC50 [1, 3]: < 50 nM
- IC50 ([2]; Table 2, wild-type RT): < 50 nM

Structure (SMILES): COc1ccc2c(C)ccc(-n3c(Br)nnc3SCC(=O)Nc3ccc(C(=O)O)cc3Cl)c2c1 [Compound 15]
- EC50 [1, 5]: < 50 nM
- IC50 ([2]; Table 1, wild-type RT): < 50 nM

Structure (SMILES): Cc1cc(C2CC2)cc(Cl)c1-n1c(Br)nnc1SCC(=O)Nc1ccc(C(=O)O)cc1Cl [Compound 20]
- EC50 [1, 5]: < 50 nM
- IC50 ([2]; Table 1, wild-type RT): < 50 nM

Structure (SMILES): NS(=O)(=O)c1ccc(NC(=O)CSc2nnc(Br)n2-c2ccc(C3CC3)cc2)c(Cl)c1 [Compound 46]
- EC50 [1, 3]: < 50 nM
- IC50 ([2]; Table 2, wild-type RT): < 50 nM

Structure (SMILES): N[C@@H](CCC(=O)NS(=O)(=O)c1ccc(NC(=O)CSc2nnc(Br)n2-c2ccc(C3CC3)c3ccccc23)c(Cl)c1)C(=O)O [Compound 64]
- EC50 [1, 4]: < 50 nM
- IC50 ([2]; Table 2, wild-type RT): < 50 nM

Structure (SMILES): N[C@@H](CC(=O)NS(=O)(=O)c1ccc(NC(=O)CSc2nnc(Cl)n2-c2ccc(C3CC3)c3ccccc23)c(Cl)c1)C(=O)O [Compound 59]
- EC50 [1, 4]: < 50 nM
- IC50 ([2]; Table 2, wild-type RT): < 50 nM

Structure (SMILES): Cc1cc(C)c2ccccc2c1-n1c(CF)nnc1SCC(=O)Nc1ccc(S(N)(=O)=O)cc1Cl [Compound 53]
- EC50 [1, 4]: < 50 nM
- IC50 ([2]; Table 2, wild-type RT): < 50 nM

Structure (SMILES): CCCc1ccc(-n2c(Br)nnc2SCC(=O)Nc2ccc(S(N)(=O)=O)cc2Cl)c2ccccc12 [Compound 55]
- EC50 [1, 4]: < 50 nM
- IC50 ([2]; Table 2, wild-type RT): < 50 nM

Structure (SMILES): CCc1ccc(-n2c(Br)nnc2SCC(=O)Nc2ccc(S(N)(=O)=O)cc2Cl)c2c1CCCC2 [Compound 50]
- EC50 [1, 4]: < 50 nM
- IC50 ([2]; Table 2, wild-type RT): < 50 nM

Structure (SMILES): Cc1cc(C2CC2)ccc1-n1c(Br)nnc1SCC(=O)Nc1ccc(S(N)(=O)=O)cc1Cl [Compound 61]
- EC50 [1, 4]: < 50 nM

Structure (SMILES): CC(=O)NS(=O)(=O)c1ccc(NC(=O)CSc2nnc(Br)n2-c2ccc(C3CC3)c3ccccc23)c(Cl)c1 [Compound 48]
- EC50 [1, 4]: < 50 nM
- IC50 ([2]; Table 2, wild-type RT): < 50 nM

Structure (SMILES): NS(=O)(=O)c1ccc(NC(=O)CSc2nnc(Cl)n2-c2ccc(C3CC3)c3ccccc23)c(Cl)c1 [Compound 65]
- EC50 [1, 4]: < 50 nM
- IC50 ([2]; Table 2, wild-type RT): < 50 nM

Structure (SMILES): CCCCCC(=O)NS(=O)(=O)c1ccc(NC(=O)CSc2nnc(Br)n2-c2ccc(C3CC3)c3ccccc23)c(Cl)c1 [Compound 75]
- EC50 [1, 4]: < 50 nM
- IC50 ([2]; Table 2, wild-type RT): < 50 nM
